Data reported in patent US10894798B2, “Substituted dihydropyrrolopyrazole derivative” (UBE INDUSTRIES, LTD., priority 2015, dated 2021).

Legend:
CDK2 = molecular target: T1, CDK2 (Homo sapiens, UniProt P24941); assay: CDK2 enzyme inhibition test; type: biochemical; settings: [γ-33P]ATP, MBP substrate; Ki=IC50/(1+S/Km); read-out: Ki value of CDK2 inhibitory activity
T1 construct: purchased Invitrogen Corp. PV3267
Experimental: (§1) The preparation of a buffer solution was performed by mixing a N-2-hydroxyethylpiperazine-N′-2-ethanesulfonic acid buffer solution (HEPES buffer solution) (pH 7.4), dithiothreitol (DTT), Triton X-100, and magnesium chloride (MgCl2). A 500 μM [γ-^33P]ATP solution was used by diluting a 10 mM ATP solution and a commercially available [γ-^33P]ATP solution (manufactured by Perkin Elmer, Inc., Code No. NEG-302H) with the buffer solution. A CDK2 solution was used by diluting commercially available CDK2 (manufactured by Invitrogen Corp., Catalog No. PV3267) with the buffer solution. A substrate solution was used by diluting myelin basic protein (MBP) with the buffer solution. As for the preparation of a reaction solution, the buffer solution, the 500 μM [γ-^33P]ATP solution, the CDK2 solution, and the substrate solution were mixed at 4° C. to obtain a reaction solution.
(§2) CDK2 enzyme reaction was performed by adding 5 μL of a test compound solution prepared with 10% DMSO/90% injectable distilled water, and 45 μL of the reaction solution in a 1.5 mL microtube at 4° C. and reacting in the microtube at 30° C. for 20 minutes in a water bath incubator. After the reaction, a 10% aqueous trichloroacetic acid (TCA) solution was added to each microtube while cooled to 4° C., and mixed in a vortex mixer to terminate the reaction. The resultant was left standing at 4° C. for 10 minutes and then centrifuged, and the supernatant was discarded. Next, a 2% aqueous trichloroacetic acid (TCA) solution was added thereto, mixed in vortex mixer, and then centrifuged, and the supernatant was discarded. This washing operation was performed twice. After the washing, precipitates were dissolved in a 1 N aqueous sodium hydroxide (NaOH) solution, and the energy quantity (radioactivity) of the reaction product was measured with a liquid scintillation counter.
The calculation of the inhibitory activity of the test compound against CDK2 was performed as a test compound concentration inhibiting 50% of the amount of ^33P bound to MBP (IC50 value) by using EXSUS (version 8.1.0, manufactured by CAC Exicare Corp.).
(§3) The calculation of a Ki value was performed according to the following calculation expression wherein S represents the concentration of ATP contained in the reaction solution, and Km represents a Michaelis-Menten constant: Ki=IC50/(1+S/Km)

PLK1 = molecular target: T2, PLK1 (Homo sapiens, UniProt P53350); assay: PLK1 enzyme (polo-like kinase) inhibition test; type: biochemical; settings: [γ-33P]ATP, casein substrate; Ki=IC50/(1+S/Km); read-out: Ki value of PLK1 inhibitory activity
T2 construct: purchased Carna Biosciences, Inc. 05-157
T2 sequence (P53350 whole entry): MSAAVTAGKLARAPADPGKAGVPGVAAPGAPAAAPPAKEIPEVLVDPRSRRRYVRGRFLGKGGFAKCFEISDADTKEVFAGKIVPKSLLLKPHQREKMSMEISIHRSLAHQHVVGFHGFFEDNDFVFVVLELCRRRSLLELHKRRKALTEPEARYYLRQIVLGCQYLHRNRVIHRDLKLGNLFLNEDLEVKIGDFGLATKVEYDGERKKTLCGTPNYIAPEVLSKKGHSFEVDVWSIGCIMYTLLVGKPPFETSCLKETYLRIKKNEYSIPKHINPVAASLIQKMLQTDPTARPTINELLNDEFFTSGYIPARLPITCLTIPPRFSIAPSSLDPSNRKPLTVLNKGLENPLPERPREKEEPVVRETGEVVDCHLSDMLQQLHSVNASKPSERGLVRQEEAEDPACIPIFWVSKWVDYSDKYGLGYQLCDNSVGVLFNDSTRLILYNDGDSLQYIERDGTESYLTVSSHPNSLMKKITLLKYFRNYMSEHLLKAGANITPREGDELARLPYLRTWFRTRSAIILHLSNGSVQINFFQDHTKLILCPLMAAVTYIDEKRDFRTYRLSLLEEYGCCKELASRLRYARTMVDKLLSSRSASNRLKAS
Experimental: The preparation of a buffer solution was performed by mixing a 3-morpholinopropanesulfonic acid buffer solution (MOPS buffer solution) (pH 7.0), dithiothreitol (DTT), and magnesium acetate (Mg(CH3COO)2). A 1 mM [γ-^33P]ATP solution was used by diluting a 10 mM ATP solution and a commercially available [γ-^33P]ATP solution (manufactured by Perkin Elmer, Inc., Code No. NEG-302H) with the buffer solution. A PLK1 solution was used by diluting commercially available PLK1 (manufactured by Carna Biosciences, Inc., Catalog No. 05-157) with the buffer solution. A substrate solution was used by diluting casein with the buffer solution. As for the preparation of a reaction solution, the buffer solution, the 500 μM [γ-^33P]ATP solution, the PLK1 solution, and the substrate solution were mixed at 4° C. to obtain a reaction solution.
as §2, with “PLK1 enzyme reaction” for “CDK2 enzyme reaction”, “mixed in a vortex mixer,” for “mixed in vortex mixer,”
The calculation of the inhibitory activity of the test compound against PLK1 was performed as a test compound concentration inhibiting 50% of the amount of ^33P bound to casein (IC50 value) by using EXSUS (version 8.1.0, manufactured by CAC Exicare Corp.).
as §3

CDK7 = molecular target: T3, CDK7 (Homo sapiens, UniProt P50613); assay: CDK7 enzyme inhibition test; type: biochemical; settings: [γ-33P]ATP, MBP substrate, 60 min preincubation at 25°C; Ki=IC50/(1+S/Km); read-out: Ki value of CDK7 inhibitory activity
T3 construct: purchased Carna Biosciences, Inc. 04-108
T3 sequence (P50613 whole entry): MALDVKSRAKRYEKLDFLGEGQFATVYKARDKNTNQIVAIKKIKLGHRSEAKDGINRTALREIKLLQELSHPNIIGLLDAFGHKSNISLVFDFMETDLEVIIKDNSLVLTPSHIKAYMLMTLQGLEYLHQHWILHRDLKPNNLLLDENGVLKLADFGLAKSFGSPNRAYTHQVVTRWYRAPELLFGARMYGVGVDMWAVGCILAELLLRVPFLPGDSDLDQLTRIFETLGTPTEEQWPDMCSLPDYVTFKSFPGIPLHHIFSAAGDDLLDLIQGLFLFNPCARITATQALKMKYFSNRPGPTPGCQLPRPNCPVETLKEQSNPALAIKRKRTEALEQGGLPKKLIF
T3 sequence (P51946 whole entry partner): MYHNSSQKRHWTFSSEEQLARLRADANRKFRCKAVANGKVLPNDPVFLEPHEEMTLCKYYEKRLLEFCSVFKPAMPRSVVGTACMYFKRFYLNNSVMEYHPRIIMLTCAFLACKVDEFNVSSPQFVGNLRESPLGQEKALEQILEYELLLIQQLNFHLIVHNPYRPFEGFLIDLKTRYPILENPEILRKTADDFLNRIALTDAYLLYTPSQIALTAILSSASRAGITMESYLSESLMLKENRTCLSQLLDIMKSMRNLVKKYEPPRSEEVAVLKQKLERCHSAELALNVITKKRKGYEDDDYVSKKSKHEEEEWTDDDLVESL
T3 sequence (P51948 whole entry partner): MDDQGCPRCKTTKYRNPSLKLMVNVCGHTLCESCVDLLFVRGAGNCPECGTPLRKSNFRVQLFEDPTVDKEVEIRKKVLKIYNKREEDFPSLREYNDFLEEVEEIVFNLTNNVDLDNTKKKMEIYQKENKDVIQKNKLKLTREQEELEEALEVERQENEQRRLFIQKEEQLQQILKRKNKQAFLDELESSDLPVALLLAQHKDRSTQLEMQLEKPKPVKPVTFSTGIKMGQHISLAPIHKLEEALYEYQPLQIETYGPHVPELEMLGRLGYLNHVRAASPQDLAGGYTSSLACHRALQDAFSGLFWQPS
Experimental: as §1, with “PerkinElmer,” for “Perkin Elmer,”, “CDK7” for “CDK2”, “Carna Biosciences, Inc.,” for “Invitrogen Corp.,”, “04-108)” for “PV3267)”, “CDK7” for “500 μM [γ-^33P]ATP solution, the CDK2”
CDK7 enzyme reaction was performed by adding 5 μL of a test compound solution prepared with 10% DMSO/90% injectable distilled water, and 40 μL of the reaction solution to a 1.5 mL microtube at 4° C. and preincubating the microtube at 25° C. for 60 minutes in a water bath incubator. Subsequently, reaction was performed at 30° C. for 20 minutes by adding 5 μL of the 500 μM [γ-^33P]ATP solution. After the reaction, a 10% aqueous trichloroacetic acid (TCA) solution was added to each microtube while cooled to 4° C., and mixed in a vortex mixer to terminate the reaction. The resultant was left standing at 4° C. for 10 minutes and then centrifuged, and the supernatant was discarded. Next, a 2% aqueous trichloroacetic acid (TCA) solution was added thereto, mixed in a vortex mixer, and then centrifuged, and the supernatant was discarded. This washing operation was performed twice. After the washing, precipitates were dissolved in a 1 N aqueous sodium hydroxide (NaOH) solution, and the energy quantity (radioactivity) of the reaction product was measured with a liquid scintillation counter.
The calculation of the inhibitory activity of the test compound against CDK7 was performed as a test compound concentration inhibiting 50% of the amount of ^33P bound to MBP (IC50 value) by using EXSUS (version 8.1.0, manufactured by CAC Exicare Corp.).
as §3

[1] = tested on: human large intestine cancer cell line (HCT-116); assay: Human large intestine cancer (HCT-116) cell growth inhibition test; type: cell-based; settings: HCT-116, 72 h, culture for 3 days, sulforhodamine B, read-out: GI50 value, HCT-116 cell growth inhibition
Experimental: The measurement of a human large intestine cancer cell growth inhibitory effect was carried out by modifying the method of Simak et al. (Cancer Research, 69, 6208 (2009)).
A human large intestine cancer cell line (HCT-116, obtained from DS Pharma Biomedical Co., Ltd.) was cultured in a McCoy's 5A medium (manufactured by Thermo Fisher Scientific, Inc.) containing 10% fetal bovine serum (FBS) (manufactured by Thermo Fisher Scientific, Inc.) and 1% penicillin/streptomycin/amphotericin B (manufactured by Thermo Fisher Scientific, Inc.) and inoculated at 0.5 to 2.0×10^3 cells/well in a 96-well plate. After overnight culture in a carbon dioxide incubator, the medium was replaced with a fresh medium on the next day, and a test compound dissolved in DMSO (final DMSO concentration: 0.1%) was added thereto and left standing in a carbon dioxide incubator. After culture for 3 days, the absorbance thereof was measured by using In Vitro Toxicology Assay Kit Sulforhodamine B based (manufactured by Sigma-Aldrich Co. LLC.).
The rate of inhibition of cell growth at each concentration was calculated from the test compound concentration and the absorbance of sulforhodamine B, and the concentration of the test compound necessary for inhibiting 50% of cell growth (GI50 value) was calculated by using EXSUS (version 8.1.0, manufactured by CAC Exicare Corp.).

SMILES | Ki (CDK2) [µM] | Ki (PLK1) [µM] | Ki (CDK7) [µM] | GI50 [1] [µM]
CC1(C)c2[nH]nc(NC(=O)C3([Si](C)(C)C)CCC3)c2CN1C(=O)N1CCc2ccccc21 [I-1000, N-[5-(Indoline-1-carbonyl)-6,6-dimethyl-1,4,5,6-tetrahydropyrrolo[3,4-c]pyrazol-3-yl]-1-(trimethylsilyl)cyclobutanecarboxamide] | ≥ 1 | ≥ 5 |  | 
CC1(C)c2[nH]nc(NC(=O)C3([Si](C)(C)C)CCC3)c2CN1C(=O)N1CCOc2ccccc21 [I-1036, N-[5-(3,4-Dihydro-2H-benz[b][1,4]oxazine-4-carbonyl)-6,6-dimethyl-1,4,5,6-tetrahydropyrrolo[3,4-c]pyrazol-3-yl]-1-(trimethylsilyl)cyclobutanecarboxamide] | ≥ 1 | ≥ 5 |  | 
CC1(C)c2[nH]nc(NC(=O)C3([Si](C)(C)C)CCC3)c2CN1C(=O)Nc1ccccc1Cl [IV-9, N-(2-Chlorophenyl)-6,6-dimethyl-3-[1-(trimethylsilyl)cyclobutanecarboxamido]-4,6-dihydropyrrolo[3,4-c]pyrazole-5(1H)-carboxamide] | ≥ 1 |  | ≤ 0.05 | ≤ 0.1
COc1ccccc1NC(=O)N1Cc2c(NC(=O)C3([Si](C)(C)C)CCC3)n[nH]c2C1(C)C [IV-75, N-(2-Methoxyphenyl)-6,6-dimethyl-3-[1-(trimethylsilyl)cyclobutanecarboxamido]-4,6-dihydropyrrolo[3,4-c]pyrazole-5(1H)-carboxamide] | ≥ 1 |  | ≤ 0.05 | ≤ 0.1
CC1(C)c2[nH]nc(NC(=O)C3([Si](C)(C)C)CCC3)c2CN1C(=O)Nc1cc(F)ccc1F [IV-103, N-(2,5-Difluorophenyl)-6,6-dimethyl-3-[1-(trimethylsilyl)cyclobutanecarboxamido]-4,6-dihydropyrrolo[3,4-c]pyrazole-5(1H)-carboxamide] |  |  | ≤ 0.05 | ≤ 0.1
CC1(C)c2[nH]nc(NC(=O)C3([Si](C)(C)C)CCC3)c2CN1C(=O)Nc1cc(Cl)ccc1F [IV-111, N-(5-Chloro-2-fluorophenyl)-6,6-dimethyl-3-[1-(trimethylsilyl)cyclobutanecarboxamido]-4,6-dihydropyrrolo[3,4-c]pyrazole-5 (1H)-carboxamide] |  |  | ≤ 0.05 | ≤ 0.1
Cc1ccc(NC(=O)N2Cc3c(NC(=O)C4([Si](C)(C)C)CCC4)n[nH]c3C2(C)C)c(F)c1 [IV-125, N-(2-Fluoro-4-methylphenyl)-6,6-dimethyl-3-[1-(trimethylsilyl)cyclobutanecarboxamido]-4,6-dihydropyrrolo[3,4-c]pyrazole-5 (1H)-carboxamide] |  |  | ≤ 0.05 | ≤ 0.1
CC1(C)c2[nH]nc(NC(=O)C3([Si](C)(C)C)CCC3)c2CN1C(=O)Nc1c(F)cccc1C(F)(F)F [IV-153, N-[2-Fluoro-6-(trifluoromethyl)phenyl]-6,6-dimethyl-3-[1-(trimethylsilyl)cyclobutanecarboxamido]-4,6-dihydropyrrolo[3,4-c]pyrazole-5(1H)-carboxamide] |  | ≥ 5 | ≤ 0.05 | ≤ 0.1
Cc1cccc(NC(=O)N2Cc3c(NC(=O)C4([Si](C)(C)C)CCC4)n[nH]c3C2(C)C)c1C [IV-375, N-(2,3-Dimethylphenyl)-6,6-dimethyl-3-[1-(trimethylsilyl)cyclobutanecarboxamido]-4,6-dihydropyrrolo[3,4-c]pyrazole-5(1H)-carboxamide] |  |  | ≤ 0.05 | ≤ 0.1
CC1(C)c2[nH]nc(NC(=O)C3([Si](C)(C)C)CCC3)c2CN1C(=O)Nc1c(F)cc(F)cc1F [IV-599, 6,6-Dimethyl-N-(2,4,6-trifluorophenyl)-3-[1-(trimethylsilyl)cyclobutanecarboxamido]-4,6-dihydropyrrolo[3,4-c]pyrazole-5(1H)-carboxamide] |  |  | ≤ 0.05 | ≤ 0.1
Cc1nscc1NC(=O)N1Cc2c(NC(=O)C3([Si](C)(C)C)CCC3)n[nH]c2C1(C)C [IV-1035, 6,6-Dimethyl-N-(3-methylisothiazol-4-yl)-3-[1-(trimethylsilyl)cyclobutanecarboxamido]-4,6-dihydropyrrolo[3,4-c]pyrazole-5 (1H)-carboxamide] |  |  | ≤ 0.05 | ≤ 0.1
